Assay results published in PMC4466200 (Bioorganic & Medicinal Chemistry Letters, 2015).

Tests used:
SARS-CoV or MERS-CoV = conditions: cited from earlier work
[1] = test system: SARS-CoV (strain Frankfurt-1); format: cell-based
HSV-2 = conditions: CD4+ T cells; McGuigan's ProTide technology employed; cited from earlier work
[2] = test system: MERS-CoV (strain EMC/2012)
HIV-1 = conditions: CD4+ T cells; McGuigan's ProTide technology employed; cited from earlier work
in vitro = conditions: human
other viruses = conditions: needed to inhibit other viruses; cited from earlier work
coronavirus = coronavirus replication in vitro; cited from earlier work

SMILES	activity against SARS-CoV or MERS-CoV in vitro (in words) (SARS-CoV or MERS-CoV)	block of virus replication (in words) [1]	block of virus replication (in words) [2]	further results
Nc1ccn([C@@H]2CS[C@H](CO)O2)c(=O)n1 [lamivudine]	none of these well known antiviral drugs exhibited any activity	–	–	–
Nc1nc2c(ncn2COCCO)c(=O)[nH]1 [Acyclovir, acyclovir]	none of these well known antiviral drugs exhibited any activity	had no effect	had no effect	concentration suppressing replication (HSV-2): 3 to 12 µmol/L; concentration suppressing replication (HIV-1): 3 to 12 µmol/L
COc1nc(N)ncc1-c1cn(COCCO)cn1 [compound 2]	–	but not SARS-CoV	can block the replication of MERS-CoV	selectivity ratio (in vitro): > 3; EC50 [1]: No effect
Nc1nc(O)c2ncn(COC(CO)CO)c2n1 [ganciclovir]	none of these well known antiviral drugs exhibited any activity	–	–	–
Cc1cn([C@H]2C[C@H](N=[N+]=[N-])[C@@H](CO)O2)c(=O)[nH]c1=O [zidovudine]	none of these well known antiviral drugs exhibited any activity	–	–	–
NC(=O)c1ncn([C@@H]2O[C@H](CO)[C@@H](O)[C@H]2O)n1 [Ribavirin, ribavirin]	–	–	–	inhibitory concentration (other viruses): 50 to 100 µg/mL; inhibitory concentration (coronavirus): 500 to 5000 µg/mL
